{"source": "patent US11834481B1", "about": "“Salty taste enhancing peptide derived from dry-cured ham and preparation method thereof” (Hefei University of Technology, priority 2022, dated 2023)", "experiment": "sensory evaluation of purified components for salty taste enhancing effect", "conditions": "components purified from Jinhua dry-cured ham crude peptides (Sephadex G-15, DEAE anion column); sensory evaluation with electronic tongue-assisted analysis", "experimental": "The crude polypeptides obtained in S2 were dissolved in pure water, filtered by 0.22 μm of aqueous phase membrane, and then loaded onto a Sephadex G-15 gel filtration column (3.0×200 cm) for purification at 25° C. Specific chromatographic parameters: the sample mass concentration was 40 mg/mL; the injection volume was 200 μL; the eluent was 0.01 M of hydrochloric acid buffer solution at a flow rate of 0.5 mL/min, the primary UV ultraviolet detection wavelength was 214 nm, and the secondary UV ultraviolet detection wavelength was 250 nm. All purified components were subject to a sensory evaluation according to their respective chromatographic peaks. […]", "data": [{"substance": "Asp-Leu [Asp-Leu (DL)]", "values": [{"measurement": "salty taste enhancing effect", "value": "optimal salty taste enhancing effect"}]}]}
